Measured values published in patent US4308259A, “Penicillin derivatives” (Beecham Group Limited, priority 1979, dated 1981).
Structures can show the parent of a compound that is named as a salt. Where two headings read alike, the source gives them in different places.

Tests used:
Assay type in all cases: cell-based
[1] = test system: P. mirabilis C 977; experiment: MIC against P. mirabilis C 977; conditions: Proteus mirabilis, C977
[2] = test system: N. catarrhalis 1502; experiment: MIC against N. catarrhalis 1502
[3] = test system: P. mirabilis 889; experiment: MIC against P. mirabilis 889; conditions: Proteus mirabilis
[4] = test system: P. rettgeri; experiment: MIC against P. rettgeri; conditions: Providencia rettgeri
[5] = test system: Ps. aeruginosa NCTC 10662; experiment: MIC against Ps. aeruginosa NCTC 10662
[6] = test system: S. pyogenes CN 10; experiment: MIC against S. pyogenes CN 10; conditions: Streptococcus pyogenes, CN10
[7] = test system: E. cloacae N1; experiment: MIC against E. cloacae N1; conditions: Enterobacter cloacae
[8] = test system: P. morganii; experiment: MIC against P. morganii; conditions: Morganella morganii
[9] = test system: S. marcescens US 32; experiment: MIC against S. marcescens US 32; conditions: Serratia marcescens, US32
[10] = test system: K. aerogenes A; experiment: MIC against K. aerogenes A; conditions: Klebsiella aerogenes
[11] = test system: Ps. aeruginosa Dalgleish; experiment: MIC against Ps. aeruginosa Dalgleish; conditions: Pseudomonas aeruginosa; Ps. aeruginosa Dalgleish 10^-2
[12] = test system: S. aureus Oxford; experiment: MIC against S. aureus Oxford; conditions: Staphylococcus aureus
[13] = test system: S. aureus Russell; experiment: MIC against S. aureus Russell; conditions: Staphylococcus aureus
[14] = test system: S. faecalis I; experiment: MIC against S. faecalis I; conditions: Enterococcus faecalis
[15] = test system: B. subtilis; experiment: MIC against B. subtilis; conditions: Bacillus subtilis
[16] = test system: E. coli NCTC 10418; experiment: MIC against E. coli NCTC 10418; conditions: Escherichia coli, NCTC10418
[17] = test system: E. coli JT 425; experiment: MIC against E. coli JT 425; conditions: Escherichia coli, JT425
[18] = test system: E. coli JT 4; experiment: MIC (antibacterial activity) against E. coli JT 4; conditions: Escherichia coli, JT4
[19] = Pseudomonas aeruginosa, NCTC10662, Ps. aeruginosa NCTC 10662 10^-2, read-out: MIC
[20] = Pseudomonas aeruginosa, NCTC10662, Ps. aeruginosa NCTC 10662, read-out: MIC

Structure (SMILES) | MIC [1] [µg/mL] | MIC [2] [µg/mL] | MIC [3] [µg/mL] | MIC ([4]; P. rettgeri, read-out: MIC) [µg/mL] | MIC [5, 19] [µg/mL] | MIC [5, 20] [µg/mL] | MIC [6] [µg/mL] | MIC [7] [µg/mL] | MIC [8] [µg/mL] | MIC [9] [µg/mL] | MIC [10] [µg/mL] | MIC [11] [µg/mL] | MIC [12] [µg/mL] | MIC [13] [µg/mL] | MIC [14] [µg/mL] | MIC [15] [µg/mL] | MIC [16] [µg/mL] | MIC ([17]; E. coli JT 425, read-out: MIC) [µg/mL] | MIC [18] [µg/mL] | further results
CO[C@@]1(NC(=O)C(c2ccc(N)cc2)S(=O)(=O)O)C(=O)N2[C@@H](C(=O)O)C(C)(C)S[C@@H]21 (stereo partly drawn) [Example 4, Disodium 6,β-[2-(4-aminophenyl)-2-sulphoacetamido]-6,α-methoxy-penicillanate] | 5 | 0.05 | 10 | 6 | 25 | 25 | 25 | 5 | 5 | 25 | 2.5 | 25 | > 100 | > 100 | > 100 | > 100 | 10 | 10 | 10 | 
CO[C@@]1(NC(=O)C(c2ccc(O)cc2)S(=O)(=O)O)C(=O)N2[C@@H](C(=O)O)C(C)(C)S[C@@H]21 (stereo partly drawn) [Example 8, Disodium 6,β-[2-(4-hydroxyphenyl)-2-sulphoacetamido]-6,α-methoxypenicillanate] | 25 | 0.2 | 25 | 10 | 50 | 50 | 25 | 10 | 25 | 100 | 10 | 25 | > 100 | > 100 | > 100 | > 100 | 25 | 25 | 25 | 
CO[C@@]1(NC(=O)C(c2ccccc2)P(=O)(O)OC)C(=O)N2[C@@H](C(=O)O)C(C)(C)S[C@@H]21 (stereo partly drawn) [Example 6, 6,α-Methoxy-6,β-(2-O-methylphosphono-2-phenylacetamido)penicillanic acid disodium salt] | 25 | 0.5 | 50 |  |  | 500 | > 500 | 12.5 | 50 | 125 | 12.5 | 250 | > 500 | > 500 | > 500 | > 500 | 50 |  | 125 | MIC [4]: 12.5 µg/mL; MIC ([5]; Ps. aeruginosa NCTC 10662 10^-2): 500 µg/mL; MIC [17]: 50 µg/mL
CO[C@@]1(NC(=O)C(c2ccccc2F)S(=O)(=O)O)C(=O)N2[C@@H](C(=O)O)C(C)(C)S[C@@H]21 (stereo partly drawn) [Example 9, Disodium 6,β-[2-(2-fluorophenyl)-2-sulphoacetamido]-6,α-methoxypenicillanate] | 5 | < 0.02 | 5 | 5 | 100 | > 100 | 5 | 2.5 | 5 | 50 | 2.5 | 100 | 25 | 50 | > 100 | 25 | 10 | 10 | 25 | 
CO[C@@]1(NC(=O)C(c2ccccc2)S(=O)(=O)O)C(=O)N2[C@@H](C(=O)O)C(C)(C)S[C@@H]21 (stereo partly drawn) [Example 1, Disodium 6,α-methoxy-6,β -(2-phenyl-2-sulphoacetamido) penicillanate] | 5 |  | 5 | 10 | > 100 | > 100 | 50 | 25 | 10 | > 100 | 2.5 | 50 | > 100 | > 100 | > 100 | > 100 | 25 | 10 | 25 | 
